Test system: TGFβ1-induced hHSC (α-SMA)
Assay: α-SMA ELISA in TGFβ1-induced human primary hepatic stellate cells (single agents and combination matrix, EOB/EOHSA)
Format: cell-based
Conditions: 1 h preincubation, TGFβ1 1 ng/ml, 48 h, FIG. 1
Procedure: After 48 hours of incubation, the expression of α-SMA was measured by ELISA. […] Data are presented as mean (triplicates)±standard deviation (SD).
Combinations were tested in a dose-response matrix format and analyzed according to the excess over Bliss (EOB) additivism model. […] Data are presented as mean of quadruplicates. (B) EOB scores were calculated as described in Materials and Methods. […] Data are presented as mean (quadruplicates)±standard deviation (SD).
Combinations were tested in a dose-response matrix format and analyzed according to the excess over Bliss (EOB) additivism model. […] Data are presented as mean (quadruplicates)±standard deviation (SD).
Then, 2-fold and 4-fold higher and lower concentrations were selected.
The human primary hepatic stellate cells (hHSC) (Innoprot) were cultured under standard conditions, as described above.

SMILES: O=C(Nc1ncc([N+](=O)[O-])s1)c1ccccc1O [TZ, tizoxanide]
- antifibrotic activity (α-SMA) as single agent: profile similar to the parent drug
